Measurements reported in patent EP2345639A1, “Cyclic hydroxylamine derivatives, their preparation and use as antioxidants” (ABIOGEN PHARMA S.p.A., priority 2009, dated 2011).
Where two headings read alike, the source gives them in different places.

Legend:
[1] = TEAC method (Trolox Equivalent Antioxidant Capacity Assay); type: biochemical; conditions: ratio of gradient to gradient of Trolox; 650 nm, 37 °C, about 90 minutes
Outline: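 ABTS radical cation generated with H2O2/HRP in 50 mM citrate pH 4.5. Compounds at six concentrations between 25 and 300 µM mixed with the radical solution at 37 °C, and absorbance loss read at 650 nm until stable (~90 min). TEAC is the slope of absorbance versus nmol compound divided by the Trolox slope.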

[2] = test system: doxorubicin-induced cerebral oxidative stress in mice; test: In vivo assay of cerebral oxidative stress induced in mice by doxorubicin (model and oxidized animals); conditions: for inhibition in vivo at 50 mg/kg / change in vivo at 50 mg/kg: Mus musculus; for inhibition in vivo at 50 mg/kg: overall, read-out: inhibition of the doxorubicin effect; for change in vivo at 50 mg/kg / mean % effect relative to doxorubicin alone, all parameters (Vehicle): oxidized mice; for mean % effect relative to doxorubicin alone, all parameters (Vehicle): computed as a function of the vehicle
Outline: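 Mice (5/arm) dosed 50 mg/kg compound IP days 0–2; one arm also got doxorubicin 16.7 mg/kg IP after the day-0 dose. Brains collected day 3; homogenate (pH 7.4) assayed colorimetrically for oxidized protein, GSH, CAT, SOD, GST, GPx, normalized to protein. Effect: % inhibition of doxorubicin-induced change.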

[3] = Brain-to-plasma concentration ratio in mice; type: in vivo, Female CD-1 mice; conditions: female, CD-1, mouse, ip, 25 mg/kg intraperitoneal, area under the curve of brain and plasma concentrations 0 to 60 minutes, read-out: B/P ratio
Protocol: The ability of the compounds of the invention to penetrate the brain was investigated by measuring their brain/plasma (B/P) ratio in mice following intraperitoneal administration.
Female CD-1 mice were used (n=3 for each time period) and received the compounds of the invention by intraperitoneal administration, in 25 mg/kg doses in a 0.5% NaHCO3 buffer (pH 8.3). At predefined intervals following said administration, i.e. 5, 15, 30 and 60 minutes, the mice were killed and both plasma and total brain tissue were collected.
Specifically, after anaesthesia with ether, the animals were bled by blood withdrawal from the abdominal aorta then immediately decapitated. The blood samples were collected into plasma separator tubes containing Li-Heparin as anticoagulant and centrifuged. The resulting plasma was then stored at -20 °C. The brain was rapidly removed from the cranium and weighed, subsequently frozen and stored at -20 °C before treatment by homogenization and HPLC analysis.
The plasma was thawed and mixed with an equal volume of the extraction solution.
1 ml of solution was then extracted by adding 20 µl of 70% HClO4, then centrifuged at 15,500g for 5 minutes and injected into the HPLC.
Each brain was thawed and homogenized with the extraction solution to provide a final composition of 4 ml/1g of tissue by means of an Ultra-Turrax blender and sonicated for 5 minutes. After centrifugation of the homogenate at 15,500g for 5 minutes, the resulting solution was treated with HClO4, as indicated for the plasma. Specific chromatographic conditions had been developed for each analyte, the calibration curve being constructed for plasma and brain homogenate.

healthy animals = test: Effect of the compounds on healthy animals (same in vivo assay, cerebral oxidative parameters); parameters: species or system mice; conditions: for Average % variation with respect to the vehicle: 50 mg/kg IP for three consecutive days, mean over all parameters, D = doxorubicin alone
Outline: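 Mice (10 per group) received compound 50 mg/kg IP on days 0–2, with half also given doxorubicin 16.7 mg/kg IP on day 0; brains were collected on day 3. Brain homogenates (pH 7.4) were assayed colorimetrically for […], protein, oxidized protein, GSH, CAT, SOD, GST and GPx. Result is mean % change across all parameters versus vehicle.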

[4] = ip, compared with its own vehicle
[5] = ip, with respect to the vehicle
[6] = ip, % inhibition relative to change due to doxorubicin alone, vs its own, read-out: Brain/BWi its own
[7] = ip, % inhibition relative to change due to doxorubicin alone, vs its own, read-out: CAT/pr its own
[8] = ip, % inhibition relative to change due to doxorubicin alone, vs its own, read-out: GPX/pr its own
[9] = ip, % inhibition relative to change due to doxorubicin alone, vs its own, read-out: GSH/pr its own
[10] = ip, % inhibition relative to change due to doxorubicin alone, vs its own, read-out: GST/pr its own
[11] = ip, % inhibition relative to change due to doxorubicin alone, vs its own, read-out: Prot. Hmg its own
[12] = ip, % inhibition relative to change due to doxorubicin alone, vs its own, read-out: Prot. Ox/pr its own
[13] = ip, % inhibition relative to change due to doxorubicin alone, vs its own, read-out: SOD/pr its own
[14] = ip, % inhibition relative to change due to doxorubicin alone, vs vehicle, read-out: Brain/BWi vehicle
[15] = ip, % inhibition relative to change due to doxorubicin alone, vs vehicle, read-out: CAT/pr vehicle
[16] = ip, % inhibition relative to change due to doxorubicin alone, vs vehicle, read-out: GPX/pr vehicle
[17] = ip, % inhibition relative to change due to doxorubicin alone, vs vehicle, read-out: GSH/pr vehicle
[18] = ip, % inhibition relative to change due to doxorubicin alone, vs vehicle, read-out: GST/pr vehicle
[19] = ip, % inhibition relative to change due to doxorubicin alone, vs vehicle, read-out: Prot. Hmg vehicle
[20] = ip, % inhibition relative to change due to doxorubicin alone, vs vehicle, read-out: Prot. Ox/pr vehicle
[21] = ip, % inhibition relative to change due to doxorubicin alone, vs vehicle, read-out: SOD/pr vehicle
[22] = 50 mg/kg IP x3 days + doxorubicin, computed as a function of its own (healthy, compound only), read-out: mean % effect relative to doxorubicin alone, all parameters (Its own)
[23] = 50 mg/kg IP x3 days + doxorubicin
[24] = healthy mice, 50 mg/kg IP x3 days, percentage change relative to the vehicle

| Compound | TEAC [1] | inhibition in vivo at 50 mg/kg [2, 4] | change in vivo at 50 mg/kg [2, 6] | change in vivo at 50 mg/kg [2, 7] | change in vivo at 50 mg/kg [2, 8] | change in vivo at 50 mg/kg [2, 9] | change in vivo at 50 mg/kg [2, 10] | change in vivo at 50 mg/kg [2, 11] | change in vivo at 50 mg/kg [2, 12] | change in vivo at 50 mg/kg [2, 13] | change in vivo at 50 mg/kg [2, 14] | change in vivo at 50 mg/kg [2, 15] | change in vivo at 50 mg/kg [2, 16] | change in vivo at 50 mg/kg [2, 17] | change in vivo at 50 mg/kg [2, 18] | change in vivo at 50 mg/kg [2, 19] | change in vivo at 50 mg/kg [2, 20] | change in vivo at 50 mg/kg [2, 21] | change in vivo at 50 mg/kg [2, 22] | Kp [3] | further results |
| --- | --- | --- | --- | --- | --- | --- | --- | --- | --- | --- | --- | --- | --- | --- | --- | --- | --- | --- | --- | --- | --- |
| O=c1oc2ccccc2c(O)c1C1COCCN1O (stereo not drawn) [(10), 4-hydroxy-3-(4-hydroxymorpholin-3-yl)-2H-chromen-2-one] | 1.4 | ~85% | -65.2% | -115% | -117% | -87.2% | -128% | -113% | -45.3% | -18.9% | -73.9% | -34.1% | -103% | -14.4% | -84.6% | -43.4% | -32.6% | 2.1% | -86.2% | > 0.1 | inhibition in vivo at 50 mg/kg [2, 5]: ≥ 50%; mean % effect relative to doxorubicin alone, all parameters (Vehicle) [2, 23]: -48.0%; Average % variation with respect to the vehicle (healthy animals; healthy mice, 50 mg/kg): did not significantly alter the parameters; Average % variation with respect to the vehicle (healthy animals; healthy mice, listed as V+(10), 50 mg/kg): -4.4%; Prot. Hmg (healthy animals; [24]): 3.1%; Brain/BWi (healthy animals; mouse, in vivo, ip, 50 mg/kg): -5.9%; CAT/pr (healthy animals; mouse, in vivo, ip, 50 mg/kg): -8.2%; GPX/pr (healthy animals; mouse, in vivo, ip, 50 mg/kg): -0.8%; GSH/pr (healthy animals; mouse, in vivo, ip, 50 mg/kg): -3.2%; GST/pr (healthy animals; mouse, in vivo, ip, 50 mg/kg): -1.2%; Prot. Ox/pr (healthy animals; mouse, in vivo, ip, 50 mg/kg): 5.4%; SOD/pr (healthy animals; mouse, in vivo, ip, 50 mg/kg): 2.1% |
| CC1=NN(c2ccccc2)C(=O)C1C1COCCN1O (stereo not drawn) [(11), 4-(4-hydroxymorpholin-3-yl)-3-methyl-1-phenyl-1H-pyrazol-5(4H)-one] | 2.0 | ~65% | -23.2% | 36.4% | -7.1% | -21.6% | -2.2% | -15.7% | -84.3% | -2.1% | 11.6% | 60.6% | 9.1% | -16% | 1.1% | -2.4% | -69.8% | 18.9% | -64.7% | > 0.1 | Average % variation with respect to the vehicle (healthy animals; healthy mice, 50 mg/kg): did not significantly alter the parameters; Average % variation with respect to the vehicle (healthy animals; healthy mice, listed as V+(11), 50 mg/kg): -2.0%; Brain/BWi (healthy animals; [24]): -2.7%; CAT/pr (healthy animals; [24]): -1.6%; GPX/pr (healthy animals; [24]): -3.3%; GSH/pr (healthy animals; [24]): -1.2%; GST/pr (healthy animals; [24]): -0.9%; Prot. Hmg (healthy animals; [24]): 1.7%; Prot. Ox/pr (healthy animals; [24]): 1.5%; SOD/pr (healthy animals; [24]): -33. % |
| CC1=NN(c2ccccc2)C(=O)C1 [edaravone, reference compound] | 0.9 | 75% | -13% | -120% | -130% | -111% | -126% | -117% | -5.2% | -49% | -44.9% | -100% | -106% | -59.2% | -110% | -102% | -22.7% | -32.9% | -77.2% | 0.123 | inhibition in vivo at 50 mg/kg [2, 5]: ~75%; mean % effect relative to doxorubicin alone, all parameters (Vehicle) [2, 23]: -72.3%; Average % variation with respect to the vehicle (healthy animals; healthy mice): -2.7%; Brain/BWi (healthy animals; [24]): 2.7%; CAT/pr (healthy animals; [24]): -5.0%; GPX/pr (healthy animals; [24]): -6.7%; GSH/pr (healthy animals; [24]): -5.5%; GST/pr (healthy animals; [24]): -3.1%; Prot. Hmg (healthy animals; [24]): 3.7%; Prot. Ox/pr (healthy animals; [24]): -2.3%; SOD/pr (healthy animals; [24]): -2.2% |
